From US20250353891A1 (MEDIMMUNE LIMITED, priority 2022, published 2025)
Starred links: 1 amine or outer side, 2 acyl side, 3 side chain; linkers in the order of their positions; H or OH if unused. Non-standard residues stand in square brackets, D forms with d. Residues, ends and D or L forms follow the SMILES beside them. Groups on a side chain read outwards from the residue. *: point of attachment. C18 diacid = O=C(O)CCCCCCCCCCCCCCCCC(=O)*; γGlu = O=C(O)[C@H](CCC(=O)[*:2])N[*:1]; αMeF = C[C@](N)(Cc1ccccc1)C(=O)O; PEG4 = NCCOCCOCCOCCOCCC(=O)O; AEEA = NCCOCCOCC(=O)O; Aib = CC(C)(N)C(=O)O

How the values were obtained:
[1] = molecular target: human GLP-1 receptor (hGLP-1R) (Homo sapiens, UniProt P43220); experiment: cAMP production (HTRF) in CHO cells expressing hGLP-1R; assay type: cell-based; set-up: expressed in transfected cells; conditions: for EC50: Table 7, peptides modified at position 20, cAMP in CHO hGLP-1R cells, geometric mean, read-out: hGLP-1R EC50; for % Relative Potency Ratio: Table 7, % GLP-1R activity relative to GLP-1 / % GlucR activity relative to glucagon
Outline: (§1)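 Read-out: HTRF cAMP (anti-cAMP cryptate donor, cAMP-d2 acceptor in conjugate/lysis buffer), converted to % Delta F and fitted by 4-parameter logistic for EC50. Cell densities were 1×10^5 cells/mL (hGLP-1R) or 2×10^5 cells/mL (hGCGR). Stimulation lasted 30 min at room temperature.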

[2] = molecular target: human glucagon receptor (hGCGR) (Homo sapiens, UniProt P47871); experiment: cAMP production (HTRF) in CHO cells expressing hGCGR; assay type: cell-based; set-up: expressed in transfected cells; conditions: Table 7, peptides modified at position 20; cAMP in CHO hGCGR cells; geometric mean; read-out: hGluc-R EC50
Outline: as §1

Sequence of human GLP-1 receptor (hGLP-1R) (P43220 24-463): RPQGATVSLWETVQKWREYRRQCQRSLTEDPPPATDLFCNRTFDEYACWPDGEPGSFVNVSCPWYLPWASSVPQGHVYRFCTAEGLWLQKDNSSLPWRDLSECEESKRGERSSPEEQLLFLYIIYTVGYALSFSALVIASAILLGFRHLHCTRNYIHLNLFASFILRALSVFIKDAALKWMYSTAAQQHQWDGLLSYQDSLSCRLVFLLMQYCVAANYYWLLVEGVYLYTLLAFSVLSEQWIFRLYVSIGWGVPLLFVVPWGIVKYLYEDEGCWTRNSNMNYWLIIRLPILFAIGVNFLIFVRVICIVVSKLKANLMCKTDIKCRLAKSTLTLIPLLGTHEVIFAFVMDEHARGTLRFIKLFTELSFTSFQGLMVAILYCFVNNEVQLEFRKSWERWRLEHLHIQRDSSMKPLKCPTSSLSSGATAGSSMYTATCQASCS
Sequence of human glucagon receptor (hGCGR) (P47871 26-477): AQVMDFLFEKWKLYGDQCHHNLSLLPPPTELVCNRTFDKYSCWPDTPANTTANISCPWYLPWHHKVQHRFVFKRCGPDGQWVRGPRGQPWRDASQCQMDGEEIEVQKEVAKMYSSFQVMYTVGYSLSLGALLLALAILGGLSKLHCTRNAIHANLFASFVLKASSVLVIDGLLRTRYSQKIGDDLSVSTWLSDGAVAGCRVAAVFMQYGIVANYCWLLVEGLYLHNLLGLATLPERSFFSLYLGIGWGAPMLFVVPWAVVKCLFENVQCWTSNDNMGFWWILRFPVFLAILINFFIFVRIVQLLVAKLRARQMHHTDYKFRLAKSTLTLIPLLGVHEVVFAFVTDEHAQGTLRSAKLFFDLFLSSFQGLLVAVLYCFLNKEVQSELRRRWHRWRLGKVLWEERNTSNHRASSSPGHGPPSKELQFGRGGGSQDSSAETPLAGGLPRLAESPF

SMILES	EC50 [1] [nM]	% Relative Potency Ratio [1]	EC50 [2] [nM]
CC[C@H](C)[C@H](NC(=O)[C@H](Cc1c[nH]c2ccccc12)NC(=O)[C@H](CCC(N)=O)NC(=O)[C@@H](NC(=O)[C@H](Cc1ccccc1)NC(=O)[C@H](CC(=O)O)NC(=O)[C@H](CCCCNC(=O)COCCOCCNC(=O)COCCOCCNC(=O)CC[C@H](NC(=O)CCCCCCCCCCCCCCCCC(=O)O)C(=O)O)NC(=O)[C@H](C)NC(=O)[C@H](C)NC(=O)[C@H](CCCNC(=N)N)NC(=O)[C@H](CCC(=O)O)NC(=O)[C@H](CC(=O)O)NC(=O)[C@H](CC(C)C)NC(=O)[C@](C)(Cc1ccccc1)NC(=O)[C@H](CCCCN)NC(=O)[C@H](CO)NC(=O)[C@@H](NC(=O)[C@H](CC(=O)O)NC(=O)[C@H](CO)NC(=O)[C@@H](NC(=O)[C@H](Cc1ccccc1)NC(=O)[C@@H](NC(=O)CNC(=O)[C@H](CCC(N)=O)NC(=O)C(C)(C)NC(=O)[C@@H](N)Cc1c[nH]cn1)[C@@H](C)O)[C@@H](C)O)C(C)C)C(C)C)C(=O)N[C@@H](C)C(=O)N[C@@H](CC(N)=O)C(=O)N[C@H](C(N)=O)[C@@H](C)O [Peptide 309]	0.0706	486.8	17.4
CC(C)C[C@H](NC(=O)[C@H](Cc1c[nH]c2ccccc12)NC(=O)[C@H](CCC(N)=O)NC(=O)[C@@H](NC(=O)[C@H](Cc1ccccc1)NC(=O)[C@H](CC(=O)O)NC(=O)[C@H](CCCCNC(=O)COCCOCCNC(=O)COCCOCCNC(=O)CC[C@H](NC(=O)CCCCCCCCCCCCCCCCC(=O)O)C(=O)O)NC(=O)[C@H](C)NC(=O)[C@H](C)NC(=O)[C@H](CCCNC(=N)N)NC(=O)[C@H](CO)NC(=O)[C@H](CC(=O)O)NC(=O)[C@H](CC(C)C)NC(=O)[C@](C)(Cc1ccccc1)NC(=O)[C@H](CCCCN)NC(=O)[C@H](CO)NC(=O)[C@@H](NC(=O)[C@H](CC(=O)O)NC(=O)[C@H](CO)NC(=O)[C@@H](NC(=O)[C@H](Cc1ccccc1)NC(=O)[C@@H](NC(=O)CNC(=O)[C@H](CCC(N)=O)NC(=O)C(C)(C)NC(=O)[C@@H](N)Cc1c[nH]cn1)[C@@H](C)O)[C@@H](C)O)C(C)C)C(C)C)C(=O)N[C@@H](CCC(=O)O)C(=O)N[C@@H](C)C(=O)NCC(=O)NCC(N)=O [Peptide 310]	0.0564	64.4	1.84
CC(C)C[C@H](NC(=O)[C@H](Cc1c[nH]c2ccccc12)NC(=O)[C@H](CCC(N)=O)NC(=O)[C@@H](NC(=O)[C@H](Cc1ccccc1)NC(=O)[C@H](CC(=O)O)NC(=O)[C@H](CCCCNC(=O)COCCOCCNC(=O)COCCOCCNC(=O)CC[C@H](NC(=O)CCCCCCCCCCCCCCCCC(=O)O)C(=O)O)NC(=O)[C@H](C)NC(=O)[C@H](C)NC(=O)[C@H](CCCNC(=N)N)NC(=O)[C@H](CO)NC(=O)[C@H](CC(=O)O)NC(=O)[C@H](CC(C)C)NC(=O)[C@](C)(Cc1ccccc1)NC(=O)[C@H](CCCCN)NC(=O)[C@H](CO)NC(=O)[C@@H](NC(=O)[C@H](CC(=O)O)NC(=O)[C@H](CO)NC(=O)[C@@H](NC(=O)[C@H](Cc1ccccc1)NC(=O)[C@@H](NC(=O)CNC(=O)[C@H](CCC(N)=O)NC(=O)C(C)(C)NC(=O)[C@@H](N)Cc1c[nH]cn1)[C@@H](C)O)[C@@H](C)O)C(C)C)C(C)C)C(=O)N[C@H](C(=O)N[C@@H](CCC(=O)O)C(=O)N[C@H](C(N)=O)[C@@H](C)O)C(C)C [Peptide 311]	0.0351	26.4	0.469
CC(C)C[C@H](NC(=O)[C@H](Cc1c[nH]c2ccccc12)NC(=O)[C@H](CCC(N)=O)NC(=O)[C@@H](NC(=O)[C@H](Cc1ccccc1)NC(=O)[C@H](CC(=O)O)NC(=O)[C@H](CCCCNC(=O)COCCOCCNC(=O)COCCOCCNC(=O)CC[C@H](NC(=O)CCCCCCCCCCCCCCCCC(=O)O)C(=O)O)NC(=O)[C@H](C)NC(=O)[C@H](CCCNC(=N)N)NC(=O)[C@H](CCCNC(=N)N)NC(=O)[C@H](CO)NC(=O)[C@H](CC(=O)O)NC(=O)[C@H](CC(C)C)NC(=O)[C@](C)(Cc1ccccc1)NC(=O)[C@H](CCCCN)NC(=O)[C@H](CO)NC(=O)[C@H](Cc1ccc(O)cc1)NC(=O)[C@H](CC(=O)O)NC(=O)[C@H](CO)NC(=O)[C@@H](NC(=O)[C@H](Cc1ccccc1)NC(=O)[C@@H](NC(=O)CNC(=O)[C@H](CCC(N)=O)NC(=O)C(C)(C)NC(=O)[C@@H](N)Cc1c[nH]cn1)[C@@H](C)O)[C@@H](C)O)C(C)C)C(=O)N[C@H](C(=O)NCCOCCOCCOCCOCCC(N)=O)C(C)C [Peptide 312] (H-H[Aib]QGTFTSDYSK[αMeF]LDSRRAK([AEEA-AEEA-γGlu-C18 diacid])DFVQWLV[PEG4]-NH2; N-terminus assumed)	0.152	36.1	2.78
CC(C)C[C@H](NC(=O)[C@H](Cc1c[nH]c2ccccc12)NC(=O)[C@H](CCC(N)=O)NC(=O)[C@@H](NC(=O)[C@H](Cc1ccccc1)NC(=O)[C@H](CC(=O)O)NC(=O)[C@H](CCCCNC(=O)COCCOCCNC(=O)COCCOCCNC(=O)CC[C@H](NC(=O)CCCCCCCCCCCCCCCCC(=O)O)C(=O)O)NC(=O)[C@H](C)NC(=O)C(C)(C)NC(=O)[C@H](CCCNC(=N)N)NC(=O)[C@H](CO)NC(=O)[C@H](CC(=O)O)NC(=O)[C@H](CC(C)C)NC(=O)[C@](C)(Cc1ccccc1)NC(=O)[C@H](CCCCN)NC(=O)[C@H](CO)NC(=O)[C@@H](NC(=O)[C@H](CC(=O)O)NC(=O)[C@H](CO)NC(=O)[C@@H](NC(=O)[C@H](Cc1ccccc1)NC(=O)[C@@H](NC(=O)CNC(=O)[C@H](CCC(N)=O)NC(=O)C(C)(C)NC(=O)[C@@H](N)Cc1c[nH]cn1)[C@@H](C)O)[C@@H](C)O)C(C)C)C(C)C)C(=O)N[C@@H](CC(C)C)C(=O)N[C@@H](CC(N)=O)C(=O)N[C@H](C(=O)O)[C@@H](C)O [Peptide 313]	0.138	17.6	1.23
CC(C)C[C@H](NC(=O)C(C)(C)NC(=O)[C@H](CCC(N)=O)NC(=O)[C@@H](NC(=O)[C@H](Cc1ccccc1)NC(=O)[C@H](CC(=O)O)NC(=O)[C@H](CCCCNC(=O)COCCOCCNC(=O)COCCOCCNC(=O)CC[C@H](NC(=O)CCCCCCCCCCCCCCCCC(=O)O)C(=O)O)NC(=O)[C@H](C)NC(=O)C(C)(C)NC(=O)[C@H](CCCNC(=N)N)NC(=O)[C@H](CO)NC(=O)[C@H](CC(=O)O)NC(=O)[C@H](CC(C)C)NC(=O)[C@](C)(Cc1ccccc1)NC(=O)[C@H](CCCCN)NC(=O)[C@H](CO)NC(=O)[C@@H](NC(=O)[C@H](CC(=O)O)NC(=O)[C@H](CO)NC(=O)[C@@H](NC(=O)[C@H](Cc1ccccc1)NC(=O)[C@@H](NC(=O)CNC(=O)[C@H](CCC(N)=O)NC(=O)C(C)(C)NC(=O)[C@@H](N)Cc1c[nH]cn1)[C@@H](C)O)[C@@H](C)O)C(C)C)C(C)C)C(=O)N[C@H](C(=O)N[C@@H](C)C(=O)N[C@H](C(N)=O)[C@@H](C)O)C(C)C [Peptide 314] (H-H[Aib]QGTFTSDVSK[αMeF]LDSR[Aib]AK([AEEA-AEEA-γGlu-C18 diacid])DFVQ[Aib]LVAT-NH2; N-terminus assumed)	0.0308	439.3	6.83
CC(C)C[C@H](NC(=O)C(C)(C)NC(=O)[C@H](CCC(N)=O)NC(=O)[C@@H](NC(=O)[C@H](Cc1ccccc1)NC(=O)[C@H](CC(=O)O)NC(=O)[C@H](CCCCNC(=O)COCCOCCNC(=O)COCCOCCNC(=O)CC[C@H](NC(=O)CCCCCCCCCCCCCCCCC(=O)O)C(=O)O)NC(=O)[C@H](C)NC(=O)[C@H](C)NC(=O)[C@H](CCCNC(=N)N)NC(=O)[C@H](CO)NC(=O)[C@H](CC(=O)O)NC(=O)[C@H](CC(C)C)NC(=O)[C@](C)(Cc1ccccc1)NC(=O)[C@H](CCCCN)NC(=O)[C@H](CO)NC(=O)[C@@H](NC(=O)[C@H](CC(=O)O)NC(=O)[C@H](CO)NC(=O)[C@@H](NC(=O)[C@H](Cc1ccccc1)NC(=O)[C@@H](NC(=O)CNC(=O)[C@H](CCC(N)=O)NC(=O)C(C)(C)NC(=O)[C@@H](N)Cc1c[nH]cn1)[C@@H](C)O)[C@@H](C)O)C(C)C)C(C)C)C(=O)N[C@H](C(=O)N[C@@H](C)C(=O)N[C@H](C(N)=O)[C@@H](C)O)C(C)C [Peptide 315]	0.0181	639.1	5.85
CC[C@H](C)[C@H](NC(=O)[C@H](Cc1c[nH]c2ccccc12)NC(=O)[C@H](CCC(N)=O)NC(=O)[C@@H](NC(=O)[C@H](Cc1ccccc1)NC(=O)[C@H](CC(=O)O)NC(=O)[C@H](CCCCNC(=O)COCCOCCNC(=O)COCCOCCNC(=O)CC[C@H](NC(=O)CCCCCCCCCCCCCCCCC(=O)O)C(=O)O)NC(=O)[C@H](C)NC(=O)[C@H](C)NC(=O)[C@H](CCCNC(=N)N)NC(=O)[C@H](CO)NC(=O)[C@H](CC(=O)O)NC(=O)[C@H](CC(C)C)NC(=O)[C@](C)(Cc1ccccc1)NC(=O)[C@H](CCCCN)NC(=O)[C@H](CO)NC(=O)[C@@H](NC(=O)[C@H](CC(=O)O)NC(=O)[C@H](CO)NC(=O)[C@@H](NC(=O)[C@H](Cc1ccccc1)NC(=O)[C@@H](NC(=O)CNC(=O)[C@H](CCC(N)=O)NC(=O)[C@](C)(CO)NC(=O)[C@@H](N)Cc1c[nH]cn1)[C@@H](C)O)[C@@H](C)O)C(C)C)C(C)C)C(=O)N[C@@H](C)C(=O)N[C@@H](CC(N)=O)C(=O)N[C@H](C(N)=O)[C@@H](C)O [Peptide 318]	0.0553	429.7	12
